The source of these data is PMC10910532, “Structure of the GDP-bound state of the SRP GTPase FlhF” (Acta Crystallographica. Section F, Structural Biology …, 2024).

This experiment has as its target T1, NG-FlhF (Shewanella putrefaciens, UniProt A4Y8J9).
T1 construct: gene Sputcn32_2561; NG domain, residues 174-460, C-terminal His6 tag, recombinant from E. coli BL21(DE3), monomer; residues 183-437 modelled
T1 sequence (A4Y8J9 174-460): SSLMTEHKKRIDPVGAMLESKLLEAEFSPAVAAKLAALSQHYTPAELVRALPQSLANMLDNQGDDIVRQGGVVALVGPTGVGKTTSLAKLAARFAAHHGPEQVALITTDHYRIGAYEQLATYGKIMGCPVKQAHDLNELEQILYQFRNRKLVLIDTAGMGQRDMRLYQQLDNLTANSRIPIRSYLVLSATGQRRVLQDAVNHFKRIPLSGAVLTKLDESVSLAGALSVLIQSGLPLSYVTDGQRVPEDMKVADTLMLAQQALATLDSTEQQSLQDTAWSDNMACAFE
Kind of experiment: X-ray crystal structure. As to conditions: 5 mM GDP pre-incubated with protein; crystallised at pH 5.0, 20 °C; nucleotide site, no Mg2+ in active site. The class given is binding.

For the compound `Nc1nc2c(ncn2[C@@H]2O[C@H](COP(=O)(O)OP(=O)(O)O)[C@@H](O)[C@H]2O)c(=O)[nH]1` [GDP], the X-ray crystal structure result is on record as “Density which could unambiguously be assigned to GDP was found in the active center”.
